Measured values as given in patent US9169254B2, “Spiroimidazolone derivative” (Chugai Seiyaku Kabushiki Kaisha, priority 2009, dated 2015).

Each molecule was assayed against T1, human PTH1 receptor (Homo sapiens, UniProt Q03431) (assay: In vitro cAMP signal activity in HKRK-B7 cells (LLC-PK1 cells overexpressing the human PTH1 receptor)). Settings: HKRK-B7 cells; compound at 1×10^−3 M; cAMP produced as percentage of that produced by hPTH(1-34) at 100 nM.
T1 sequence (Q03431 27-593): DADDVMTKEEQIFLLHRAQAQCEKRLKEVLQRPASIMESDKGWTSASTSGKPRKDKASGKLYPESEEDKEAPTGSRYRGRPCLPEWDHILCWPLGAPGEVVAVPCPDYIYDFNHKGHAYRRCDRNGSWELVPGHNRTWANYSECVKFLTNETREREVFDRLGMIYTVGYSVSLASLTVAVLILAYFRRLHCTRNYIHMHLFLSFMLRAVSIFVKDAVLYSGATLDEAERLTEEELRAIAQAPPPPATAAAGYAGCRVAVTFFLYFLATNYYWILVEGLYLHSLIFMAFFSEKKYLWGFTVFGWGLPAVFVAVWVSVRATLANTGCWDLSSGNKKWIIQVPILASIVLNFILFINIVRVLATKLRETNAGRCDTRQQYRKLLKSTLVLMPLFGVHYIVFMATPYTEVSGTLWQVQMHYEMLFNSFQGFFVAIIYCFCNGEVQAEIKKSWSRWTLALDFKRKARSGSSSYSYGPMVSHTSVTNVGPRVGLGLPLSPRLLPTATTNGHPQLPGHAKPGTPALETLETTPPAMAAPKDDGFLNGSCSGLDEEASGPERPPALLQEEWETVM
Type: cell-based

| Compound | cAMP production activity (%) |
| --- | --- |
| O=C1NC(C2CCCCC2)=NC12CCN(S(=O)(=O)/C=C/c1ccc(CCO)cc1)CC2 [Compound 187, 2-cyclohexyl-8-{(E)-2-[4-(2-hydroxy-ethyl)-phenyl]-ethenesulfonyl}-1,3,8-triaza-spiro[4.5]dec-1-en-4-one] | 12 |
| O=C(Nc1ccc(/C=C/S(=O)(=O)N2CCC3(CC2)N=C(C2CCCCC2)NC3=O)c(C(F)(F)F)c1)C1CC1 [Compound 195, cyclopropanecarboxylic acid {4-[(E)-2-(2-cyclohexyl-4-oxo-1,3,8-triaza-spiro[4.5]dec-1-ene-8-sulfonyl)-vinyl]-3-trifluoromethyl-phenyl}-amide] | 36 |
| O=C(CO)Nc1ccc(/C=C/S(=O)(=O)N2CCC3(CC2)N=C(C2CCCCC2)NC3=O)c(C(F)(F)F)c1 [Compound 196, N-{4-[(E)-2-(2-cyclohexyl-4-oxo-1,3,8-triaza-spiro[4.5]dec-1-ene-8-sulfonyl)-vinyl]-3-trifluoromethyl-phenyl}-2-hydroxy-acetamide] | 66 |
| O=C(NCCO)Nc1ccc(/C=C/S(=O)(=O)N2CCC3(CC2)N=C(C2CCCCC2)NC3=O)c(C(F)(F)F)c1 [Compound 198, 1-{4-[(E)-2-(2-cyclohexyl-4-oxo-1,3,8-triaza-spiro[4.5]dec-1-ene-8-sulfonyl)-vinyl]-3-trifluoromethyl-phenyl}-3-(2-hydroxy-ethyl)-urea] | 31 |
| Cc1ccc(NCCO)cc1/C=C/S(=O)(=O)N1CCC2(CC1)N=C(C1CCCCC1)NC2=O [Compound 199, 2-cyclohexyl-8-{(E)-2-[5-(2-hydroxy-ethylamino)-2-methyl-phenyl]-ethenesulfonyl}-1,3,8-triaza-spiro[4.5]dec-1-en-4-one] | 46 |
| Cc1cccc(NCCO)c1/C=C/S(=O)(=O)N1CCC2(CC1)N=C(C1CCCCC1)NC2=O [Compound 200, 2-cyclohexyl-8-{(E)-2-[2-(2-hydroxy-ethylamino)-6-methyl-phenyl]-ethenesulfonyl}-1,3,8-triaza-spiro[4.5]dec-1-en-4-one] | 37 |
| Cc1cc(C(=O)N2CC(F)(F)C(F)(F)C2)ccc1/C=C/S(=O)(=O)N1CCC2(CC1)N=C(C1CCCCC1)NC2=O [Compound 203, 2-cyclohexyl-8-{(E)-2-[2-methyl-4-(3,3,4,4-tetrafluoro-pyrrolidine-1-carbonyl)-phenyl]-ethenesulfonyl}-1,3,8-triaza-spiro[4.5]dec-1-en-4-one] | 25 |
| CC(=O)Nc1cc(C)c(/C=C/S(=O)(=O)N2CCC3(CC2)N=C(C2CCCCC2)NC3=O)c(C)c1 [Compound 204, N-{4-[(E)-2-(2-Cyclohexyl-4-oxo-1,3,8-triaza-spiro[4.5]dec-1-ene-8-sulfonyl)-vinyl]-3,5-dimethyl-phenyl}-acetamide] | 110 |
| CC(C)(C)OC(=O)NCc1ccc(/C=C/S(=O)(=O)N2CCC3(CC2)N=C(C2CCCCC2)NC3=O)c(C(F)(F)F)c1 [Compound 205, {4-[(E)-2-(2-cyclohexyl-4-oxo-1,3,8-triaza-spiro[4.5]dec-1-ene-8-sulfonyl)-vinyl]-3-trifluoromethyl-benzyl}-carbamic acid tert-butyl ester] | 47 |
| Cc1cc(OC[C@H](O)CO)cc(C)c1/C=C/S(=O)(=O)N1CCC2(CC1)N=C(C1CCCCC1)NC2=O [Compound 206, 2-cyclohexyl-8-{(E)-2-[4-((R)-2,3-dihydroxy-propoxy)-2,6-dimethyl-phenyl]-ethenesulfonyl}-1,3,8-triaza-spiro[4.5]dec-1-en-4-one] | 70 |
| Cc1cc(NCC2CNC(=O)O2)ccc1/C=C/S(=O)(=O)N1CCC2(CC1)N=C(C1CCCCC1)NC2=O (centres unmarked) [Compound 207, 2-cyclohexyl-8-((E)-2-{2-methyl-4-[(2-oxo-oxazolidin-5-ylmethyl)-amino]-phenyl}-ethenesulfonyl)-1,3,8-triaza-spiro[4.5]dec-1-en-4-one] | 36 |
| CC1CCC(C2=NC3(CCN(S(=O)(=O)/C=C/c4cccc(C#N)c4)CC3)C(=O)N2)CC1 (centres unmarked) [Compound 209, 3-{(E)-2-[2-(4-Methyl-cyclohexyl)-4-oxo-1,3,8-triaza-spiro[4.5]dec-1-ene-8-sulfonyl]-vinyl}-benzonitrile] | 24 |
| Cc1cc(OCCC(O)CO)ccc1/C=C/S(=O)(=O)N1CCC2(CC1)N=C(c1cccc(C(F)(F)F)c1)NC2=O (centres unmarked) [Compound 210, 8-{(E)-2-[4-(3,4-Dihydroxy-butoxy)-2-methyl-phenyl]-ethenesulfonyl}-2-(3-trifluoromethyl-phenyl)-1,3,8-triaza-spiro[4.5]dec-1-en-4-one] | 79 |
| O=C1NC(c2cccc(C(F)(F)F)c2)=NC12CCN(S(=O)(=O)/C=C/c1ccc(NCCO)cc1C(F)(F)F)CC2 [Compound 211, 8-{(E)-2-[4-(2-hydroxy-ethylamino)-2-trifluoromethyl-phenyl]-ethenesulfonyl}-2-(3-trifluoromethyl-phenyl)-1,3,8-triaza-spiro[4.5]dec-1-en-4-one] | 60 |
| Cc1cc(C(=O)N2CCCC2)ccc1/C=C/S(=O)(=O)N1CCC2(CC1)N=C(c1cccc(C(F)(F)F)c1)NC2=O [Compound 212, 8-{(E)-2-[2-methyl-4-(pyrrolidine-1-carbonyl)-phenyl]-ethenesulfonyl}-2-(3-trifluoromethyl-phenyl)-1,3,8-triaza-spiro[4.5]dec-1-en-4-one] | 59 |

More lines, now with the values ahead:

| cAMP production activity (%) | Compound |
| --- | --- |
| 70 | O=C1NC(C2CCCCC2)=NC12CCN(S(=O)(=O)/C=C/c1cccc3[nH]c(=O)oc13)CC2 [Compound 188, 2-cyclohexyl-8-[(E)-2-(2-oxo-2,3-dihydro-benzoxazol-7-yl)-ethenesulfonyl]-1,3,8-triaza-spiro[4.5]dec-1-en-4-one] |
| 54 | CN(C)C(=O)n1ccc2c(/C=C/S(=O)(=O)N3CCC4(CC3)N=C(C3CCCCC3)NC4=O)cccc21 [Compound 189, 4-[(E)-2-(2-cyclohexyl-4-oxo-1,3,8-triaza-spiro[4.5]dec-1-ene-8-sulfonyl)-vinyl]-indole-1-carboxylic acid dimethylamide] |
| 61 | CC(=O)Nc1cccc(C)c1/C=C/S(=O)(=O)N1CCC2(CC1)N=C(C1CCCCC1)NC2=O [Compound 190, N-{2-[(E)-2-(2-cyclohexyl-4-oxo-1,3,8-triaza-spiro[4.5]dec-1-ene-8-sulfonyl)-vinyl]-3-methyl-phenyl}-acetamide] |
| 57 | O=C1NC(C2CCCCC2)=NC12CCN(S(=O)(=O)/C=C/c1cccc3c1ccn3C[C@H](O)CO)CC2 [Compound 191, 2-cyclohexyl-8-{(E)-2-[1-((S)-2,3-dihydroxy-propyl)-1H-indol-4-yl]-ethenesulfonyl}-1,3,8-triaza-spiro[4.5]dec-1-en-4-one] |
| 52 | O=C1NC(C2CCCCC2)=NC12CCN(S(=O)(=O)/C=C/c1cccc3c1ccn3CCN1CCOCC1)CC2 [Compound 192, 2-cyclohexyl-8-{(E)-2-[1-(2-morpholin-4-yl-ethyl)-1H-indol-4-yl]-ethenesulfonyl}-1,3,8-triaza-spiro[4.5]dec-1-en-4-one] |
| 65 | CN(C)C(=O)Cn1ccc2c(/C=C/S(=O)(=O)N3CCC4(CC3)N=C(C3CCCCC3)NC4=O)cccc21 [Compound 193, 2-{4-[(E)-2-(2-cyclohexyl-4-oxo-1,3,8-triaza-spiro[4.5]dec-1-ene-8-sulfonyl)-vinyl]-indol-1-yl}-N,N-dimethyl-acetamide] |
| 56 | CN(C)C(=O)Nc1ccc(/C=C/S(=O)(=O)N2CCC3(CC2)N=C(C2CCCCC2)NC3=O)c(C(F)(F)F)c1 [Compound 194, 3-{4-[(E)-2-(2-cyclohexyl-4-oxo-1,3,8-triaza-spiro[4.5]dec-1-ene-8-sulfonyl)-vinyl]-3-trifluoromethyl-phenyl}-1,1-dimethyl-urea] |
| 41 | COC(=O)Nc1ccc(C)c(/C=C/S(=O)(=O)N2CCC3(CC2)N=C(C2CCCCC2)NC3=O)c1 [Compound 197, {3-[(E)-2-(2-cyclohexyl-4-oxo-1,3,8-triaza-spiro[4.5]dec-1-ene-8-sulfonyl)-vinyl]-4-methyl-phenyl}-carbamic acid methyl ester] |
| 56 | CN(C)C(=O)CNc1ccc(/C=C/S(=O)(=O)N2CCC3(CC2)N=C(C2CCCCC2)NC3=O)c(C(F)(F)F)c1 [Compound 201, 2-{4-[(E)-2-(2-cyclohexyl-4-oxo-1,3,8-triaza-spiro[4.5]dec-1-ene-8-sulfonyl)-vinyl]-3-trifluoromethyl-phenylamino}-N,N-dimethyl-acetamide] |
| 27 | CC1(C)OC[C@H](Cn2cc(F)c3c(/C=C/S(=O)(=O)N4CCC5(CC4)N=C(C4CCCCC4)NC5=O)cccc32)O1 [Compound 202, 2-cyclohexyl-8-{(E)-2-[1-((S)-2,2-dimethyl-[1,3]dioxolan-4-ylmethyl)-3-fluoro-1H-indol-4-yl]-ethenesulfonyl}-1,3,8-triaza-spiro[4.5]dec-1-en-4-one] |
| 22 | CN(C)CCNC(=O)Cc1ccc(/C=C/S(=O)(=O)N2CCC3(CC2)N=C(C2CCCCC2)NC3=O)cc1 [Compound 208, 2-{4-[(E)-2-(2-cyclohexyl-4-oxo-1,3,8-triaza-spiro[4.5]dec-1-ene-8-sulfonyl)-vinyl]-phenyl}-N-(2-dimethylamino-ethyl)-acetamide] |
